Laboratory results as given in US10723741B1, “DNA polymerase IIIC inhibitors and use thereof” (Acurx Pharmaceuticals, LLC, priority 2018, dated 2020).
≈ marks a conversion by molar mass, not a printed value. Where two headings read alike, the source gives them in different places.

Columns and labels:
Assay type in all cases: cell-based
[1] = test system: Staphylococcus aureus NRS384 (MRSA); assay: Broth microdilution MIC, S. aureus NRS384 (MRSA); conditions: Staphylococcus aureus, read-out: MIC NRS 384 (MRSA)
Summary of the method: (§1)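 Broth microdilution in strain-specific test medium with ~5.0×10^5 cfu/ml inoculum, 1% DMSO and two-fold compound dilutions from 64 to 0.0625 μg/ml. Plates were held 20 hours at 37° C in ambient air. S. pneumoniae colonies were grown beforehand on blood agar in 5% CO2.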

[2] = test system: Staphylococcus aureus ATCC 29213 (MSSA); assay: Broth microdilution MIC, S. aureus ATCC 29213 (MSSA); conditions: read-out: MIC S. aureus ATCC 29213 (MSSA)
Summary of the method: as §1

[3] = test system: Enterococcus faecalis ATCC 29212; assay: Broth microdilution MIC, E. faecalis ATCC 29212; conditions: read-out: MIC E. faecalis ATCC 29212
Summary of the method: as §1

[4] = test system: Enterococcus faecium ATCC 700221 (VRE); assay: Broth microdilution MIC, E. faecium ATCC 700221 (VRE); conditions: Enterococcus faecium, read-out: MIC E. faecium ATCC 700221 (VRE)
Summary of the method: as §1

[5] = test system: Streptococcus pneumoniae ATCC 49619; assay: Broth microdilution MIC, S. pneumoniae ATCC 49619; conditions: read-out: MIC S. pneumoniae ATCC 49619
Summary of the method: as §1

[6] = test system: Bacillus subtilis ATCC 6633; assay: Broth microdilution MIC, B. subtilis ATCC 6633; conditions: read-out: MIC B. subtilis ATCC 6633
Summary of the method: as §1

[7] = test system: Escherichia coli ATCC 25922; assay: Broth microdilution MIC, E. coli ATCC 25922 (MHIIB w & w/o 4 mM EDTA); conditions: for MIC: Escherichia coli, read-out: MIC E. coli ATCC 25922; for MIC E. coli ATCC 25922 + 4 mM EDTA: with 4 mM EDTA
Summary of the method: as §1

[8] = broth microdilution, 37° C., 20 hours
[9] = ATCC29212, broth microdilution, 37° C., 20 hours
[10] = ATCC49619, broth microdilution, 37° C., 20 hours
[11] = ATCC6633, broth microdilution, 37° C., 20 hours
[12] = ATCC25922, without EDTA, broth microdilution, 37° C., 20 hours

Row | SMILES | MIC [1, 8] | MIC [2, 8] | MIC [3, 9] | MIC [4, 8] | MIC [5, 10] | MIC [6, 11] | MIC [7, 12] | MIC E. coli ATCC 25922 + 4 mM EDTA [7, 8] | MIC ([1]; 20 h) | MIC ([2]; 20 h) | MIC ([3]; ATCC29212, 20 h) | MIC ([4]; 20 h) | MIC ([5]; ATCC49619, 20 h) | MIC ([6]; ATCC6633, 20 h) | MIC ([7]; ATCC25922, 20 h) | MIC ([1]; S. aureus NRS 384, broth microdilution, 37° C., 20 hours)
1 | Cl.O=C(c1ccncc1)N1CCC(n2ncc3nc(NCc4ccc(Cl)c(Cl)c4)[nH]c(=O)c32)C1 (centres unmarked) [Compound 259, 5-[(3,4-Dichlorophenyl)methylamino]-1-[1-(pyridine-4-carbonyl)pyrrolidin-3-yl]-6H-pyrazolo[4,3-d]pyrimidin-7-one] | 8 µg/mL | 8 µg/mL | 4 µg/mL | 4 µg/mL | 4 µg/mL | 2 µg/mL | > 64 µg/mL | >64 µg/mL | – | – | – | – | – | – | – | –
2 | CC(C)n1cc2nc(NCc3ccc(Cl)c(Cl)c3)[nH]c(=O)c2n1 [Compound 132, 5-((3,4-Dichlorobenzyl)amino)-2-isopropyl-2H-pyrazolo[4,3-d]pyrimidin-7(6H)-one] | > 64 µg/mL | > 64 µg/mL | > 64 µg/mL | 16 µg/mL (≈ 45.4 µM) | 16 µg/mL (≈ 45.4 µM) | 8 µg/mL (≈ 22.7 µM) | > 64 µg/mL | >64 µg/mL | – | – | – | – | – | – | – | –
3 | Cl.O=c1[nH]c(NCc2ccc(Cl)c(Cl)c2)nc2cnn(CCN3CC(O)C3)c12 [Compound 70, 5-((3,4-Dichlorobenzyl)amino)-1-(2-(3-hydroxyazetidin-1-yl)ethyl)-1H-pyrazolo[4,3-d]pyrimidin-7(6H)-one hydrochloride] | 64 µg/mL | > 64 µg/mL | 64 µg/mL | > 64 µg/mL | 8 µg/mL | 16 µg/mL | > 64 µg/mL | 64 µg/mL | – | – | – | – | – | – | – | –
4 | CN1CCN(CCn2ncc3nc(NCc4ccc(Cl)c(Cl)c4)[nH]c(=O)c32)CC1=O [Compound 60, 5-((3,4-Dichlorobenzyl)amino)-1-(2-(4-methyl-3-oxopiperazin-1-yl)ethyl)-1H-pyrazolo[4,3-d]pyrimidin-7(6H)-one] | 8 µg/mL (≈ 17.8 µM) | 8 µg/mL (≈ 17.8 µM) | 8 µg/mL (≈ 17.8 µM) | 2 µg/mL (≈ 4.44 µM) | 4 µg/mL (≈ 8.88 µM) | 4 µg/mL (≈ 8.88 µM) | > 64 µg/mL | >64 µg/mL | – | – | – | – | – | – | – | –
5 | O=c1[nH]c(NCc2ccc(Cl)c(Cl)c2)nc2cnn(C[C@@H]3CO[C@H](CO)CO3)c12 [Compound 208, 5-((3,4-dichlorobenzyl)amino)-1-(((2R,5R)-5-(hydroxymethyl)-1,4-dioxan-2-yl)methyl)-1H-pyrazolo[4,3-d]pyrimidin-7(6H)-one] | 16 µg/mL (≈ 36.3 µM) | 16 µg/mL (≈ 36.3 µM) | 8 µg/mL (≈ 18.2 µM) | 4 µg/mL (≈ 9.08 µM) | 8 µg/mL (≈ 18.2 µM) | 2 µg/mL (≈ 4.54 µM) | > 64 µg/mL | >64 µg/mL | – | – | – | – | – | – | – | –
6 | O=c1[nH]c(NCc2ccc(Cl)c(Cl)c2)nc2cnn(CCN3CCS(=O)(=O)CC3)c12 [Compound 59, 5-((3,4-Dichlorobenzyl)amino)-1-(2-(1,1-dioxidothiomorpholino)ethyl)-1H-pyrazolo[4,3-d]pyrimidin-7(6H)-one] | 8 µg/mL (≈ 17 µM) | 8 µg/mL (≈ 17 µM) | 8 µg/mL (≈ 17 µM) | 2 µg/mL (≈ 4.24 µM) | 4 µg/mL (≈ 8.49 µM) | 4 µg/mL (≈ 8.49 µM) | > 64 µg/mL | >64 µg/mL | – | – | – | – | – | – | – | –
7 | Cl.Cl.O=c1[nH]c(NCc2ccc(Cl)c(Cl)c2)nc2cnn(CCN3CCN(CCO)CC3)c12 [Compound 71, 5-((3,4-Dichlorobenzyl)amino)-1-(2-(4-(2-hydroxyethyl)piperazin-1-yl)ethyl)-1H-pyrazolo[4,3-d]pyrimidin-7(6H)-one dihydrochloride] | 64 µg/mL | 32 µg/mL | 32 µg/mL | 16 µg/mL | 4 µg/mL | 4 µg/mL | > 64 µg/mL | >64 µg/mL | – | – | – | – | – | – | – | –
8 | Cl.O=C(c1cnc[nH]1)N1CCC(n2ncc3nc(NCc4ccc(Cl)c(Cl)c4)[nH]c(=O)c32)CC1 [Compound 270, 1-(1-(1H-imidazole-5-carbonyl)piperidin-4-yl)-5-((3,4-dichlorobenzyl)amino)-1H-pyrazolo[4,3-d]pyrimidin-7(6H)-one hydrochloride] | 16 µg/mL | 16 µg/mL | 8 µg/mL | 4 µg/mL | 8 µg/mL | 4 µg/mL | > 64 µg/mL | >64 µg/mL | – | – | – | – | – | – | – | –
9 | CCCCOCCOCCOCCn1ncc2nc(NCc3ccc(Cl)c(Cl)c3)[nH]c(=O)c21 [Compound 95, 1-(2-(2-(2-Butoxyethoxy)ethoxy)ethyl)-5-((3,4-dichlorobenzyl)amino)-1H-pyrazolo[4,3-d]pyrimidin-7(6H)-one] | 4 µg/mL (≈ 8.03 µM) | 4 µg/mL (≈ 8.03 µM) | 16 µg/mL (≈ 32.1 µM) | 4 µg/mL (≈ 8.03 µM) | 8 µg/mL (≈ 16.1 µM) | 2 µg/mL (≈ 4.01 µM) | > 64 µg/mL | >64 µg/mL | – | – | – | – | – | – | – | –
10 | Cl.Cl.O=c1[nH]c(NCc2ccc(Cl)c(Cl)c2)nc2cnn(C3CCN(Cc4ccncc4)CC3)c12 [Compound 246, 5-((3,4-Dichlorobenzyl)amino)-1-(1-(pyridin-4-ylmethyl)piperidin-4-yl)-1H-pyrazolo[4,3-d]pyrimidin-7(6H)-one dihydrochloride] | 2 µg/mL | 2 µg/mL | 4 µg/mL | 2 µg/mL | 4 µg/mL | 1 µg/mL | > 64 µg/mL | >64 µg/mL | – | – | – | – | – | – | – | –
11 | CC(C)(C)OC(=O)N1CCOC(Cn2ncc3nc(NCc4ccc(Cl)c(Cl)c4)[nH]c(=O)c32)C1 (centres unmarked) [Compound 148, tert-butyl 2-((5-((3,4-dichlorobenzyl)amino)-7-oxo-6,7-dihydro-1H-pyrazolo[4,3-d]pyrimidin-1-yl)methyl)morpholine-4-carboxylate] | 4 µg/mL (≈ 7.85 µM) | 8 µg/mL (≈ 15.7 µM) | 16 µg/mL (≈ 31.4 µM) | 4 µg/mL (≈ 7.85 µM) | 16 µg/mL (≈ 31.4 µM) | 2 µg/mL (≈ 3.93 µM) | > 64 µg/mL | >64 µg/mL | – | – | – | – | – | – | – | –
12 | Cl.O=c1[nH]c(NCc2ccc(Cl)c(Cl)c2)nc2cnn(CCOCc3nn[nH]n3)c12 [Compound 282, 1-(2-((2H-tetrazol-5-yl)methoxy)ethyl)-5-((3,4-dichlorobenzyl)amino)-1H-pyrazolo[4,3-d]pyrimidin-7(6H)-one hydrochloride] | > 64 µg/mL | > 64 µg/mL | > 64 µg/mL | > 64 µg/mL | > 64 µg/mL | > 64 µg/mL | > 64 µg/mL | >64 µg/mL | – | – | – | – | – | – | – | –
13 | O=c1[nH]c(NCc2ccc(Cl)c(Cl)c2)nc2cnn(CCN3CCNCC3)c12 [Compound 74, 5-((3,4-dichlorobenzyl)amino)-1-(2-(piperazin-1-yl)ethyl)-1H-pyrazolo[4,3-d]pyrimidin-7(6H)-one] | 64 µg/mL (≈ 152 µM) | 32 µg/mL (≈ 75.8 µM) | 64 µg/mL (≈ 152 µM) | 16 µg/mL (≈ 37.9 µM) | 16 µg/mL (≈ 37.9 µM) | 8 µg/mL (≈ 18.9 µM) | > 64 µg/mL | >64 µg/mL | – | – | – | – | – | – | – | –
14 | CC(C)(C)OC(=O)NCCOCCn1ncc2nc(NCc3ccc(Cl)c(Cl)c3)[nH]c(=O)c21 [Compound 100, tert-Butyl (2-(2-(5-((3,4-dichlorobenzyl)amino)-7-oxo-6,7-dihydro-1H-pyrazolo[4,3-d]pyrimidin-1-yl)ethoxy)ethyl)carbamate] | – | – | – | – | – | – | – | >64 µg/mL | > 64 µg/mL | > 64 µg/mL | > 64 µg/mL | 4 µg/mL (≈ 8.04 µM) | 8 µg/mL (≈ 16.1 µM) | 2 µg/mL (≈ 4.02 µM) | > 64 µg/mL | –
15 | O=c1[nH]c(NCc2ccc(F)c(F)c2)nc2c(Cl)nn(CCOCCO)c12 [Compound 309, 3-Chloro-5-[(3,4-difluorophenyl)methylamino]-1-[2-(2-hydroxyethoxy)ethyl]-6H-pyrazolo[4,3-d]pyrimidin-7-one] | – | 16 µg/mL (≈ 40 µM) | 32 µg/mL (≈ 80 µM) | 16 µg/mL (≈ 40 µM) | 8 µg/mL (≈ 20 µM) | 8 µg/mL (≈ 20 µM) | > 64 µg/mL | >64 µg/mL | – | – | – | – | – | – | – | 16 µg/mL (≈ 40 µM)
16 | Cn1ncc2nc(NCc3ccc(Cl)c(F)c3)[nH]c(=O)c21 [Compound 1, 5-((4-chloro-3-fluorobenzyl)amino)-1-methyl-1H-pyrazolo[4,3-d]pyrimidin-7(6H)-one] | 8 µg/mL (≈ 26 µM) | 8 µg/mL (≈ 26 µM) | 16 µg/mL (≈ 52 µM) | 8 µg/mL (≈ 26 µM) | 4 µg/mL (≈ 13 µM) | 4 µg/mL (≈ 13 µM) | > 64 µg/mL | 32 µg/mL | – | – | – | – | – | – | – | –
